Measured values taken from PubChem BioAssay AID2060901 (Molecular Pharmacology Branch, DTP, NCI, 2025).

Tested on: 422866-222-R5-J1-PDC complex spheroids viability
Test: Anticancer human tumor 422866-222-R5-J1-PDC patient-derived pancreatic adenocarcinoma cell line growth inhibition [RAS]
Conditions: for IC50: curve of first compound; for viability, T/C: stronger effect = lower value
Method in brief: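 Agents were tested in combination matrices in half-log decrements from a top concentration at or near clinical Cmax (10 microM if undetermined). Targets were multi-cell spheroids of tumour lines plus HUVEC and MSC stromal cells.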
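Note: spheroids exposed to compounds for 7 days.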
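Throughout, for viability, T/C: 100% = DMSO vehicle control viability.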

C=CC(=O)N1CCN(c2nc(OCC3CCCN3C)nc3c(F)c(-c4nc(N)cc(C)c4C(F)(F)F)c(Cl)cc23)C(C)C1 (centres undefined) + C#Cc1c(F)ccc2cc(O)cc(-c3ncc4c(N5CC6CCC(C5)N6)nc(OCC56CCCN5CC(F)C6)nc4c3F)c12
IC50 (second compound 0.0316 µM): < 3.16 nM
IC50 (second compound 0.1 µM): < 3.16 nM
IC50 (second compound 0.316 µM): < 3.16 nM
IC50 (second compound 1 µM): < 3.16 nM
IC50 (second compound 3.16 µM): < 3.16 nM
IC50 (second compound 10 µM): < 3.16 nM
viability, T/C (second compound 0.0316 µM, first compound 0.00316 µM): 29.7%
viability, T/C (second compound 0.0316 µM, first compound 0.01 µM): 24%
viability, T/C (second compound 0.0316 µM, first compound 0.0316 µM): 21.9%
viability, T/C (second compound 0.0316 µM, first compound 0.1 µM): 19.4%
viability, T/C (second compound 0.0316 µM, first compound 0.316 µM): 19%
viability, T/C (second compound 0.0316 µM, first compound 1 µM): 22%
viability, T/C (second compound 0.1 µM, first compound 0.00316 µM): 28.4%
viability, T/C (second compound 0.1 µM, first compound 0.01 µM): 24.6%
viability, T/C (second compound 0.1 µM, first compound 0.0316 µM): 21.2%
viability, T/C (second compound 0.1 µM, first compound 0.1 µM): 18.6%
viability, T/C (second compound 0.1 µM, first compound 0.316 µM): 20.9%
viability, T/C (second compound 0.1 µM, first compound 1 µM): 21.3%
viability, T/C (second compound 0.316 µM, first compound 0.00316 µM): 29.6%
viability, T/C (second compound 0.316 µM, first compound 0.01 µM): 24.6%
viability, T/C (second compound 0.316 µM, first compound 0.0316 µM): 25.7%
viability, T/C (second compound 0.316 µM, first compound 0.1 µM): 19.2%
viability, T/C (second compound 0.316 µM, first compound 0.316 µM): 21%
viability, T/C (second compound 0.316 µM, first compound 1 µM): 21%
viability, T/C (second compound 1 µM, first compound 0.00316 µM): 20.5%
viability, T/C (second compound 1 µM, first compound 0.01 µM): 21.4%
viability, T/C (second compound 1 µM, first compound 0.0316 µM): 21.7%
viability, T/C (second compound 1 µM, first compound 0.1 µM): 19.8%
viability, T/C (second compound 1 µM, first compound 0.316 µM): 18.8%
viability, T/C (second compound 1 µM, first compound 1 µM): 17.5%
viability, T/C (second compound 3.16 µM, first compound 0.00316 µM): 21.6%
viability, T/C (second compound 3.16 µM, first compound 0.01 µM): 18.1%
viability, T/C (second compound 3.16 µM, first compound 0.0316 µM): 21%
viability, T/C (second compound 3.16 µM, first compound 0.1 µM): 22.5%
viability, T/C (second compound 3.16 µM, first compound 0.316 µM): 19%
viability, T/C (second compound 3.16 µM, first compound 1 µM): 22.6%
viability, T/C (second compound 10 µM, first compound 0.00316 µM): 17.9%
viability, T/C (second compound 10 µM, first compound 0.01 µM): 20.3%
viability, T/C (second compound 10 µM, first compound 0.0316 µM): 20.8%
viability, T/C (second compound 10 µM, first compound 0.1 µM): 17.5%
viability, T/C (second compound 10 µM, first compound 0.316 µM): 20.7%
viability, T/C (second compound 10 µM, first compound 1 µM): 17.6%

CC1(C)CCC(Nc2ncc(C(F)(F)F)c(-c3c[nH]c4c(P(C)(C)=O)c(C#N)ccc34)n2)CN1 (centres undefined) + C#Cc1c(F)ccc2cc(O)cc(-c3ncc4c(N5CC6CCC(C5)N6)nc(OCC56CCCN5CC(F)C6)nc4c3F)c12
IC50 (second compound 0.0316 µM): > 300 nM
IC50 (second compound 0.1 µM): 91.8 nM
IC50 (second compound 0.316 µM): 7.9 nM
IC50 (second compound 1 µM): 1.6 nM
IC50 (second compound 3.16 µM): < 0.949 nM
IC50 (second compound 10 µM): < 0.949 nM
viability, T/C (second compound 0.0316 µM, first compound 0.000949 µM): 112%
viability, T/C (second compound 0.0316 µM, first compound 0.003 µM): 83.3%
viability, T/C (second compound 0.0316 µM, first compound 0.00949 µM): 80.6%
viability, T/C (second compound 0.0316 µM, first compound 0.03 µM): 55.6%
viability, T/C (second compound 0.0316 µM, first compound 0.0949 µM): 62%
viability, T/C (second compound 0.0316 µM, first compound 0.3 µM): 56.4%
viability, T/C (second compound 0.1 µM, first compound 0.000949 µM): 100%
viability, T/C (second compound 0.1 µM, first compound 0.003 µM): 68%
viability, T/C (second compound 0.1 µM, first compound 0.00949 µM): 73.8%
viability, T/C (second compound 0.1 µM, first compound 0.03 µM): 38.2%
viability, T/C (second compound 0.1 µM, first compound 0.0949 µM): 47.5%
viability, T/C (second compound 0.1 µM, first compound 0.3 µM): 55.6%
viability, T/C (second compound 0.316 µM, first compound 0.000949 µM): 64.2%
viability, T/C (second compound 0.316 µM, first compound 0.003 µM): 66.4%
viability, T/C (second compound 0.316 µM, first compound 0.00949 µM): 45.5%
viability, T/C (second compound 0.316 µM, first compound 0.03 µM): 45.1%
viability, T/C (second compound 0.316 µM, first compound 0.0949 µM): 52.6%
viability, T/C (second compound 0.316 µM, first compound 0.3 µM): 45.3%
viability, T/C (second compound 1 µM, first compound 0.000949 µM): 54.1%
viability, T/C (second compound 1 µM, first compound 0.003 µM): 44.1%
viability, T/C (second compound 1 µM, first compound 0.00949 µM): 40.3%
viability, T/C (second compound 1 µM, first compound 0.03 µM): 42.7%
viability, T/C (second compound 1 µM, first compound 0.0949 µM): 34.5%
viability, T/C (second compound 1 µM, first compound 0.3 µM): 34.6%
viability, T/C (second compound 3.16 µM, first compound 0.000949 µM): 27%
viability, T/C (second compound 3.16 µM, first compound 0.003 µM): 37.7%
viability, T/C (second compound 3.16 µM, first compound 0.00949 µM): 28.4%
viability, T/C (second compound 3.16 µM, first compound 0.03 µM): 28.8%
viability, T/C (second compound 3.16 µM, first compound 0.0949 µM): 29.1%
viability, T/C (second compound 3.16 µM, first compound 0.3 µM): 26.9%
viability, T/C (second compound 10 µM, first compound 0.000949 µM): 24.2%
viability, T/C (second compound 10 µM, first compound 0.003 µM): 25.1%
viability, T/C (second compound 10 µM, first compound 0.00949 µM): 24.1%
viability, T/C (second compound 10 µM, first compound 0.03 µM): 27.8%
viability, T/C (second compound 10 µM, first compound 0.0949 µM): 27.9%
viability, T/C (second compound 10 µM, first compound 0.3 µM): 31.2%
